Source: the Kinase Knowledgebase extract (Sharma et al. 2016)
“And” between values parts separate entries of the source, which are not always exact repeats. Equal values may be shown once.

These molecules were tested against PIK3CG (UniProt P48736) (assay: PIK3-gamma Enzyme Assay).
Sequence of PIK3CG (P48736 whole entry, looked up): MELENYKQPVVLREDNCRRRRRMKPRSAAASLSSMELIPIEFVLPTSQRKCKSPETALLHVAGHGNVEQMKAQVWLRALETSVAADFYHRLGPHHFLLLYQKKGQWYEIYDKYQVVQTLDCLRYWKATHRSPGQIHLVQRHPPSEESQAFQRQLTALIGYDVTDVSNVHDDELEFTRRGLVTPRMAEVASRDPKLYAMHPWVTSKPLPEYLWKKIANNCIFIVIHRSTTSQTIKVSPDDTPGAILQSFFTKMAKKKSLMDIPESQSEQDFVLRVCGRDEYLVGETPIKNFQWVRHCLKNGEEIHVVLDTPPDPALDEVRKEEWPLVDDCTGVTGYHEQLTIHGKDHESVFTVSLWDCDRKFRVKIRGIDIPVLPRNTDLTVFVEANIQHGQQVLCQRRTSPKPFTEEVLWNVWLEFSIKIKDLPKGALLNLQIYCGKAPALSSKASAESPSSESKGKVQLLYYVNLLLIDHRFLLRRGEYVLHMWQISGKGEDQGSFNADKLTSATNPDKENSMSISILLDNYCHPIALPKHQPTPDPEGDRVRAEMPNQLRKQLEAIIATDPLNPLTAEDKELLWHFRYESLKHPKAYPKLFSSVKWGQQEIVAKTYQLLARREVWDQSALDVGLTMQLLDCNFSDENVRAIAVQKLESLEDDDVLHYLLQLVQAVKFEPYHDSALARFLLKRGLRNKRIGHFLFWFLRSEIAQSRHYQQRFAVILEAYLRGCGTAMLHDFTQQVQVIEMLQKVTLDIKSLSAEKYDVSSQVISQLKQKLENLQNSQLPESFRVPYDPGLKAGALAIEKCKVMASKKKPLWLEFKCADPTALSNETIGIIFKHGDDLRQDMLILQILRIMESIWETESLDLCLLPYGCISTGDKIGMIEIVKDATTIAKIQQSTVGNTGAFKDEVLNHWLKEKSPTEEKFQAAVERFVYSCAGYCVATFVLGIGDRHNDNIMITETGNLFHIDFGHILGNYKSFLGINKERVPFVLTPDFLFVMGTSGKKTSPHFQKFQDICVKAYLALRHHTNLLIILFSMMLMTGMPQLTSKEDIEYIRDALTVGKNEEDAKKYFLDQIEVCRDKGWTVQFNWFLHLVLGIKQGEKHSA
With `O=c1cc(N2CCOCC2)[nH]c2c(OCc3ccccc3)cccc12` the IC50 was 2000 nM.

What follows are molecules tested against PIK3CB;PIK3CA (UniProt P42338) (assay: PI3-Kinase alpha/beta Inhibition).
For `O=c1cc(N2CCOCC2)oc2c(Cc3ccccc3)cccc12`, the IC50 was 100 nM. With `Cc1cc(Nc2ccccc2C(F)(F)F)c2nc(N3CCOCC3)cc(=O)n2c1` the IC50 was 5000 nM. In the case of `CC(C)(C)c1ccc(COc2cccn3c(=O)cc(N4CCOCC4)nc23)cc1`, the IC50 is reported as 7500 nM. In the case of `O=c1cc(N2CCOCC2)oc2c(-c3ccc(F)cc3)cccc12`, the IC50 is reported as 1000 nM. `Cc1cc(Nc2ccc(Cl)cc2)c2nc(N3CCOCC3)cc(=O)n2c1` showed an IC50 of 1000 nM. `Cc1cc(C2CCN(C)C2=O)c2nc(N3CCOCC3)cc(=O)n2c1` (configuration not stated) gave an IC50 of 20000 nM. `Cc1c(OCc2ccccc2)ccc2c(=O)cc(N3CCOCC3)oc12` gave an IC50 of 10000 nM. For `Cc1cc(CNc2ccc(F)cc2C)c2nc(N3CCOCC3)cc(=O)n2c1`, the IC50 was 10 nM. With `Cc1ccc(Oc2cc(C)cn3c(=O)cc(N4CCOCC4)nc23)cc1` the IC50 was 1000 nM. `Cc1cc(CCc2ccncc2)c2nc(N3CCOCC3)cc(=O)n2c1` showed an IC50 of 1000 nM. `Cc1cc(N[C@@H](C)c2ccccc2)c2nc(N3CCOCC3)cc(=O)n2c1` showed an IC50 of 1000 nM. In the case of `Cc1ccc(Oc2cccc3c(=O)cc(N4CCOCC4)[nH]c23)cc1`, the IC50 is reported as 500 nM. `Cc1cc(Nc2ncccc2C)c2nc(N3CCOCC3)cc(=O)n2c1` showed an IC50 of 10000 nM. With `Cc1cc(Oc2cccc3c(=O)cc(N4CCOCC4)oc23)ccc1F` the IC50 was 100 to 150 nM. `O=C(O)c1cccc(Oc2cccc3c(=O)cc(N4CCOCC4)[nH]c23)c1` showed an IC50 of 500 nM. With `Cc1cc(Nc2ccccc2O)c2nc(N3CCOCC3)cc(=O)n2c1` the IC50 was 200 nM. In the case of `Cc1cc(Oc2cccn3c(=O)cc(N4CCOCC4)nc23)ccc1F`, the IC50 is reported as 750 nM. Molecule `O=c1cc(N2CCOCC2)[nH]c2c(Oc3ccccc3F)cccc12` has an IC50 of 150 nM. Molecule `O=c1cc(N2CCOCC2)[nH]c2c(Oc3ccc(F)cc3)cccc12` has an IC50 of 50 nM. `Cc1cc(NCc2ccncc2)c2nc(N3CCOCC3)cc(=O)n2c1` was tested, and the IC50 was 500 nM. Molecule `O=c1cc(N2CCOCC2)nc2c(Cc3ccccc3)cccn12` has an IC50 of 1500 nM. `Cc1cc(NCc2ccccc2)c2nc(N3CCOCC3)cc(=O)n2c1` was tested, and the IC50 was 50 nM. In the case of `COc1cccc(COc2cccn3c(=O)cc(N4CCOCC4)nc23)c1`, the IC50 is reported as 1000 nM. Molecule `Cc1cc(NCc2ccccc2Cl)c2nc(N3CCOCC3)cc(=O)n2c1` has an IC50 of 50 nM. `O=c1cc(N2CCOCC2)nc2c(OCc3cccc(Cl)c3)cccn12` gave an IC50 of 500 nM. Work on `O=c1cc(N2CCOCC2)oc2cc(OCc3cccnc3)ccc12` yielded an IC50 of 2000 nM. `Cc1cc(Nc2ccncc2)c2nc(N3CCOCC3)cc(=O)n2c1` gave an IC50 of 1000 nM. Work on `Cc1ccc(S(=O)(=O)Oc2cccc3c(=O)cc(N4CCOCC4)[nH]c23)cc1` yielded an IC50 of 1000 nM. With `Cc1cc(F)ccc1Oc1cccc2c(=O)cc(N3CCOCC3)[nH]c12` the IC50 was 20 nM. For `O=c1cc(N2CCOCC2)nc2c(-c3ccccc3)cccn12`, the IC50 was 10500 nM. `Cc1ccc(Cc2cccc3c(=O)cc(N4CCOCC4)[nH]c23)cc1` was tested, and the IC50 was 2000 nM. Molecule `O=c1cc(N2CCOCC2)[nH]c2c(Oc3ccccc3)cccc12` has an IC50 of 100 nM. With `O=c1cc(N2CCOCC2)[nH]c2c(Cc3ccc(F)cc3)cccc12` the IC50 was 1000 nM. Work on `O=c1cc(N2CCOCC2)[nH]c2c(Cc3ccccc3)cccc12` yielded an IC50 of 2000 nM. `Cc1cccn2c(=O)cc(N3CCOCC3)nc12` showed an IC50 of 11100 nM. For `O=c1cc(N2CCOCC2)oc2cc(/C=C/c3ccccc3)ccc12`, the IC50 was 10000 nM. Work on `O=c1cc(N2CCOCC2)nc2c(Oc3ccccc3)cccn12` yielded an IC50 of 1000 nM. Molecule `Cc1cc(-c2ccccc2)c2nc(N3CCOCC3)cc(=O)n2c1` has an IC50 of 9800 nM. For `O=c1cc(N2CCOCC2)[nH]c2c(OCc3ccccc3)cccc12`, the IC50 was 100 nM. In the case of `Cc1cc(NCC2CCNCC2)c2nc(N3CCOCC3)cc(=O)n2c1`, the IC50 is reported as 1000 nM. For `O=c1cc(N2CCOCC2)oc2c(-c3ccccc3Cl)cccc12`, the IC50 was 500 nM. `Cc1cc(Nc2ccc(O)cc2C)c2nc(N3CCOCC3)cc(=O)n2c1` was tested, and the IC50 was 100 nM. In the case of `Cc1cc(NCc2ccccn2)c2nc(N3CCOCC3)cc(=O)n2c1`, the IC50 is reported as 500 nM. `O=c1cc(N2CCOCC2)oc2c(Oc3ccccc3)cccc12` was tested, and the IC50 was 100 nM and 50 nM. Molecule `Cc1ccccc1-c1cccc2c(=O)cc(N3CCOCC3)oc12` has an IC50 of 2000 nM. `O=c1cc(N2CCOCC2)oc2c(-c3ccccc3C(F)(F)F)cccc12` showed an IC50 of 200 nM. For `O=c1cc(N2CCOCC2)nc2c(OCc3ccccn3)cccn12`, the IC50 was 10000 nM. `O=c1cc(N2CCOCC2)[nH]c2c(Sc3ccccc3)cccc12` was tested, and the IC50 was 50 nM. With `Cc1cc(Nc2ccc(F)cc2C)c2nc(N3CCOCC3)cc(=O)n2c1` the IC50 was 200 nM. `O=c1cc(N2CCOCC2)oc2c(OCc3cccnc3)cccc12` showed an IC50 of 1000 nM. For `Cc1cc(N[C@H](C)c2ccccc2)c2nc(N3CCOCC3)cc(=O)n2c1`, the IC50 was 200 nM. `Cc1cc(Nc2ccc(O)cc2)c2nc(N3CCOCC3)cc(=O)n2c1` was tested, and the IC50 was 100 nM. With `Cc1cc(Cl)ccc1Oc1cccc2c(=O)cc(N3CCOCC3)[nH]c12` the IC50 was 1000 nM. `O=c1cc(N2CCOCC2)oc2c(O)cccc12` showed an IC50 of 25000 nM. `Cc1cccc(Oc2cccc3c(=O)cc(N4CCOCC4)[nH]c23)c1` gave an IC50 of 50 nM. In the case of `Cc1c(Oc2ccccc2)ccc2c(=O)cc(N3CCOCC3)oc12`, the IC50 is reported as 5000 nM and 10000 nM and 2000 nM. `Cc1cc(NCc2ccc(Cl)cc2)c2nc(N3CCOCC3)cc(=O)n2c1` gave an IC50 of 1000 nM. Work on `Cc1cc(-c2ccsc2)c2nc(N3CCOCC3)cc(=O)n2c1` yielded an IC50 of 1000 nM. `O=c1cc(N2CCOCC2)nc2c(OCc3cccnc3)cccn12` was tested, and the IC50 was 10000 nM. Molecule `Cc1cc(-c2ccccc2C(F)(F)F)c2nc(N3CCOCC3)cc(=O)n2c1` has an IC50 of 2000 nM. Molecule `Cc1cc(CNc2ccccc2)c2nc(N3CCOCC3)cc(=O)n2c1` has an IC50 of 50 nM. `Cc1cc(Nc2ccccc2OCCN(C)C)c2nc(N3CCOCC3)cc(=O)n2c1` showed an IC50 of 2000 nM. Work on `O=c1cc(N2CCOCC2)nc2c(OCc3ccccc3)cccn12` yielded an IC50 of 500 nM. Molecule `Cc1ccccc1Oc1cccc2c(=O)cc(N3CCOCC3)[nH]c12` has an IC50 of 50 nM. In the case of `COc1ccccc1CNc1cc(C)cn2c(=O)cc(N3CCOCC3)nc12`, the IC50 is reported as 50 nM. `COC(=O)c1cccc(Oc2cccc3c(=O)cc(N4CCOCC4)[nH]c23)c1` showed an IC50 of 500 nM.
